{"source": "patent US20230241014A1", "about": "“MEK-INHIBITORS FOR THE TREATMENT OR PREVENTION OF CORONAVIRUS INFECTIONS AND/OR COVID-19 CYTOKINE STORM” (priority 2020, published 2023)", "system": "SARS-CoV-2 SA variant B.1351", "test": "Virus yield reduction assay against SARS-CoV-2 SA variant B.1351", "assay_type": "cell-based", "settings": "MOI 0.1, 1 and 10, 50, 75, 100 μM, 24 h", "data": [{"smiles": "O=C(O)c1ccc(F)c(F)c1Nc1ccc(I)cc1Cl", "note": "[ATR-002, 2-(2-chloro-4-iodophenylamino)-N-3,4-difluoro benzoic acid]", "values": [{"measurement": "virus yield (RT-qPCR)", "setting": "Calu-3", "value": "reduction of virus yield"}, {"measurement": "virus yield (RT-qPCR)", "setting": "Vero", "value": "reduction of virus yield"}]}]}
